From article PMC9661478 (Journal of Medicinal Chemistry, 2022)

Key:
[1] = tested on: cleaved caspase 3; experiment: Cleaved caspase-3 immunoassay; settings: 40 mg/kg ip daily x3
[2] = tested on: GP2D cells; experiment: GP2D proliferation assay; assay type: cell-based; settings: KRAS^G12D mutation
[3] = tested on: p-ERK; experiment: pERK1/2 immunoassay; settings: 40 mg/kg ip daily x3
[4] = tested on: LS513 cells; experiment: LS513 proliferation assay; assay type: cell-based; settings: KRAS^G12D mutation
[5] = Body weight changes in the NCI-H358 efficacy study; settings: both dose groups; less pronounced for the low dose group
[6] = target: GDP-KRAS^G12C::SOS1 interaction (Homo sapiens, UniProt P01116, G12C); experiment: biochemical
Chain of GDP-KRAS^G12C::SOS1 interaction (P01116 1-169 isoform P01116-2 G12C limits assumed): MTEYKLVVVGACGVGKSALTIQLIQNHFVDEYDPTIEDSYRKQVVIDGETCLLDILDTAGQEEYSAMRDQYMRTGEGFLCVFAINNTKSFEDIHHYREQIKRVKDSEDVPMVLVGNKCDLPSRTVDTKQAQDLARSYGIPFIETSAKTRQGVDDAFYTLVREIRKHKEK

Row | Compound | induction of apoptosis (cleaved caspase 3) detectable in treated samples ([1]; 2 h post-dose on day 3) | induction of apoptosis (cleaved caspase 3) detectable in treated samples ([1]; 6 h post-dose on day 3) | concentration above which antiproliferative effect was observed, GP2D cells [2] | reduction of p-ERK levels ([3]; 2 h post last dose) | reduction of p-ERK levels ([3]; 6 h post last dose) | concentration above which antiproliferative effect was observed, LS513 cells [4] | body weight change compared to vehicle [5] | IC50 [6]
1 | C=CC(=O)N1CCN(c2cc(-c3noc([C@@]4(C)CCCc5sc(N)c(C#N)c54)n3)nc(N3CCN(C)C[C@@H]3C)c2)CC1 [BI-0474, (4S)-2-Amino-4-(3-{6-[(2S)-2,4-dimethylpiperazin-1-yl]-4-[4-(prop-2-enoyl)piperazin-1-yl]pyridin-2-yl}-1,2,4-oxadiazol-5-yl)-4-methyl-4,5,6,7-tetrahydro-1-benzothiophene-3-carbonitrile] | one out of five | all five | above 4 μM | five-fold | six-fold | above 4 μM | some body weight loss | –
2 | C=CC(=O)N1CCN(c2cccc(-c3noc([C@@]4(C)CCCc5sc(N)c(C#N)c54)n3)c2)CC1 [Compound 22, (4S)-2-Amino-4-methyl-4-(3-{3-[4-(prop-2-enoyl)piperazin-1-yl]phenyl}-1,2,4-oxadiazol-5-yl)-4,5,6,7-tetrahydro-1-benzothiophene-3-carbonitrile] | – | – | – | – | – | – | – | ~3 µM
